# Test system: BEAS-2B cells
# Assay: Toxicity: compound concentration needed to induce greater than 50 percent of cell loss
# Assay type: cell-based, human
# Details: 18 hours incubation
# Procedure: (§1) Approximately 2300 primary and immortalized human bronchial epithelial cells (BEAS-2B) stably expressing TFEB-EGFP in 25 μL of HITEs media with 10% FBS were dispensed into 384 well plate (Black with glass bottom) and incubated for 8 hours. Compound serial dilution (DMEM low glucose media with 2% FBS, 25 μL volume) were prepared using a robotic liquid hander. Compound solution were then added to the cell plate and incubated for 18 hours. Cells were then fixed with 4% PFA followed by DAPI staining. TFEB localization was imaged on the GFP channel along with the DAPI signal using a Cytation 5 high content imager. Images were processed through Biotek Gen5 software. Specifically, the DAPI signal was used as the primary mask to quantify the nuclear TFEB-GFP signal. Cytosolic TFEB-GFP signal was quantified through expanding the primary mask. The TFEB nuclear/cytosol ratios were calculated from nuclear TFEB-GFP signal/cytosol TFEB-GFP signal, which determined the compound efficacies.
# Toxicity was determined by determining the compound concentration needed to induce greater than 50 percent of cell loss. For toxicity, cell loss of greater than 50 percent at a concentration that equals or is greater than 25 μM was represented as cell loss of greater than 50 percent at a concentration less than 25 μM and greater than 1 μM was represented as and cell loss of greater than 50 percent at a concentration that equals or is less than 1 μM was represented as “+++.” The assay results for compounds 1-202, 214-248, 332, 333, and 352-402 are shown in Table A.
row,Compound,toxicity (compound concentration needed to induce greater than 50 percent of cell loss)
1,CCCN(CCC)c1nc(-c2ccncc2)nc2ccccc12 [Compound 166],+ (cell loss of greater than 50 percent at a concentration that equals or is greater than 25 μM was represented as)
2,c1cnc2cc(-c3ccncc3)nc(Nc3ccc4nc(C5CC5)sc4c3)c2c1 [Compound 241],+ (cell loss of greater than 50 percent at a concentration that equals or is greater than 25 μM was represented as)
3,CC(C)(C)c1nc2ccc(Nc3nc(-c4ccncc4)nc4ccccc34)cc2s1 [Compound 93],+ (cell loss of greater than 50 percent at a concentration that equals or is greater than 25 μM was represented as)
4,CCN1CCCC1CNc1nc(-c2ccncc2)nc2ccccc12 (stereo not drawn) [Compound 176],+ (cell loss of greater than 50 percent at a concentration that equals or is greater than 25 μM was represented as)
5,Oc1ccc(-c2nc(Nc3ccc4[nH]ncc4c3)c3ccccc3n2)cc1 [Compound 64],++ (cell loss of greater than 50 percent at a concentration less than 25 μM and greater than 1 μM was represented as)
6,Cc1nc2ccc(Nc3nc(-c4ccncc4)nc4ccccc34)cc2s1 [Compound 192],+ (cell loss of greater than 50 percent at a concentration that equals or is greater than 25 μM was represented as)
7,c1ccc(Nc2nc(-c3ccncc3)nc3ccccc23)cc1 [Compound 179],+ (cell loss of greater than 50 percent at a concentration that equals or is greater than 25 μM was represented as)
8,Fc1cccc2nc(-c3ccncc3)nc(Nc3ccc4[nH]ccc4c3)c12 [Compound 111],+ (cell loss of greater than 50 percent at a concentration that equals or is greater than 25 μM was represented as)
9,COc1ccc(-n2c(=O)c3ccc(C(=O)NCc4ccc(C)cc4)cc3n(CC(=O)Nc3cc(C)[nH]n3)c2=O)cc1 [Compound 218],+ (cell loss of greater than 50 percent at a concentration that equals or is greater than 25 μM was represented as)
10,c1cnc2nc(-c3cncs3)nc(Nc3ccc4[nH]ccc4c3)c2c1 [Compound 386],+ (cell loss of greater than 50 percent at a concentration that equals or is greater than 25 μM was represented as)
11,COc1ccc(NC(=O)Cn2c(=O)n(-c3ccc(C)cc3)c(=O)c3ccccc32)cc1 [Compound 220],+ (cell loss of greater than 50 percent at a concentration that equals or is greater than 25 μM was represented as)
12,c1ccc2c(Nc3ccc4cnsc4c3)nc(-c3ccncc3)nc2c1 [Compound 24],+ (cell loss of greater than 50 percent at a concentration that equals or is greater than 25 μM was represented as)

# Test system: TFEB
# Assay: High content screen measuring TFEB nuclear accumulation (TFEB nuclear/cytosol ratio) in BEAS-2B cells stably expressing TFEB-EGFP
# Assay type: cell-based, human
# Details: 18 hours incubation
# Procedure: FIG. 3. High content screen assay (384 well) measuring TFEB nuclear accumulation. Approximately 2500 primary and immortalized human bronchial epithelial cells (BEAS-2B) stably expressing TFEB-EGFP in 25 μL of HITEs media with 10% FBS were dispensed into 384 well plate (Black with glass bottom) and incubated for 8 hours. Compound serial dilution (DMEM low glucose media with 2% FBS, 25 μL volume) were prepared using a robotic liquid hander. Compound solutions were then added to the cell plate and incubated for 18 hours. Cells were then fixed with 4% PFA followed by DAPI staining. TFEB localization was imaged on the GFP channel along with the DAPI signal using a Cytation 5 high content imager. Images were processed through Biotek Gen5 software; specifically, the DAPI signal was used as the primary mask to quantify the nuclear TFEB-GFP signal. The cytosolic TFEB-GFP signal was quantified through expanding the primary mask. The TFEB nuclear/cytosol ratios were calculated from nuclear TFEB-GFP signal/cytosol TFEB-GFP signal, which determined the compound efficacy. […] Compound activities (μM) were determined by the minimal compound concentration needed to increase TFEB nuclear/cytosol ratio by 25%. Activity: “−” equals >25 μM; “+” equals between 25 μM and >10 μM; “++” equals between ≤10 μM and >1 μM; and “+++” equals […]. N=4.
# as §1
# Compounds efficacies (μM) were determined by the minimal compound concentration needed to increase TFEB nuclear/cytosol ratio by 25%. Activity: “+” equals >25 μM; “++” equals between ≤25 μM and >1 μM; and “+++” equals ≤1 μM.
# A high-content imaging screen was conducted using Beas2B cells that stably express GFP-TFEB.
row,Compound,efficacy (minimal compound concentration needed to increase TFEB nuclear/cytosol ratio by 25%)
1,CCCN(CCC)c1nc(-c2ccncc2)nc2ccccc12 [Compound 166],+ (“+” equals >25 μM)
2,c1cnc2cc(-c3ccncc3)nc(Nc3ccc4nc(C5CC5)sc4c3)c2c1 [Compound 241],+++ (“+++” equals ≤1 μM)
3,CC(C)(C)c1nc2ccc(Nc3nc(-c4ccncc4)nc4ccccc34)cc2s1 [Compound 93],+ (“+” equals >25 μM)
4,CCN1CCCC1CNc1nc(-c2ccncc2)nc2ccccc12 (stereo not drawn) [Compound 176],++ (“++” equals between ≤25 μM and >1 μM)
5,Oc1ccc(-c2nc(Nc3ccc4[nH]ncc4c3)c3ccccc3n2)cc1 [Compound 64],++ (“++” equals between ≤25 μM and >1 μM)
6,Cc1nc2ccc(Nc3nc(-c4ccncc4)nc4ccccc34)cc2s1 [Compound 192],+++ (“+++” equals ≤1 μM)
7,c1ccc(Nc2nc(-c3ccncc3)nc3ccccc23)cc1 [Compound 179],++ (“++” equals between ≤25 μM and >1 μM)
8,Fc1cccc2nc(-c3ccncc3)nc(Nc3ccc4[nH]ccc4c3)c12 [Compound 111],+ (“+” equals >25 μM)
9,COc1ccc(-n2c(=O)c3ccc(C(=O)NCc4ccc(C)cc4)cc3n(CC(=O)Nc3cc(C)[nH]n3)c2=O)cc1 [Compound 218],+ (“+” equals >25 μM)
10,c1cnc2nc(-c3cncs3)nc(Nc3ccc4[nH]ccc4c3)c2c1 [Compound 386],+++ (“+++” equals ≤1 μM)
11,COc1ccc(NC(=O)Cn2c(=O)n(-c3ccc(C)cc3)c(=O)c3ccccc32)cc1 [Compound 220],+ (“+” equals >25 μM)
12,c1ccc2c(Nc3ccc4cnsc4c3)nc(-c3ccncc3)nc2c1 [Compound 24],+++ (“+++” equals ≤1 μM)

# Reference: patent US12286442B2, “Methods and materials for increasing transcription factor eb polypeptide levels” (University of Pittsburgh—Of the Commonwealth System of …, priority 2019, dated 2025)
